This passage reports EC50 results from PubChem BioAssay AID2765 (Broad Institute, 2010).

This experiment deals with MEF A1-2A-BIM cells, caspase 3/7 luminescence, 3 h. The experiment in a line: caspase activation in A1-2A-BIM MEF cells, dose response, A1 inhibitor project, cell-based, luminescence, retest (AID 2765).

For orientation: EC50 means the concentration giving half of the maximal effect.

Active and inactive are the calls of the source.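 How the source made its calls: active means half-maximal concentration for the rise in caspase light signal at or below ten times the top tested dose; inconclusive means flat fit between 30% and 70% activity, or unreliable curve fit; inactive means the rest.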

For `CC(C)c1ccc(NC(=S)NNC(=O)c2cccs2)cc1`, the EC50 was > 35 µM (inactive).
The value for `COc1ccc(-c2cc3ccccc3oc2=O)cc1NC(=S)NC(=O)c1ccc2c(c1)OCCO2` was 6.8 µM.
Consider `CCC1(C(=O)c2ccc(Cl)cc2)C2c3ccccc3OC(=O)C21C(=O)Nc1ccccc1` (stereo not given), for which the EC50 is > 35 µM (inactive).
Take `CCN(CC)c1ncnc2c1cnn2Cc1ccc(Cl)cc1`: the EC50 was > 35 µM (inactive).
With `CCN1C(=O)/C(=C2\Sc3ccccc3N2CC)OC1=S`, the EC50 was > 35 µM (inactive).
The value for `Cc1nccc2c1[nH]c1ccccc12` was > 35 µM (inactive); that for `CCOc1nc(NCCO)nc(NCCC2=CCCCC2)n1` was > 35 µM (inactive).
`Cc1cccc(NC(=S)N(Cc2cccc(Br)c2)CC2CCC(C(=O)O)CC2)c1` (stereo not given): the EC50 was > 35 µM (inactive).
The value for `Cc1cccc(C)c1NC(=S)Nc1ccccc1C(=O)NCc1ccco1` was > 35 µM (inactive); that for `C=CCn1c(SCC(=O)NC23CC4CC(CC(C4)C2)C3)nc(O)cc1=O` was > 35 µM (inactive).
The value for `CC(CC(=O)N1CCN(c2cccc(Cl)c2)CC1)S(=O)(=O)c1ccc2c(c1)NC(=O)CO2` (stereo not given) was > 35 µM (inactive); that for `COc1ccc(-c2ccc3c(c2)S(=O)(=O)c2cccc(C(=O)NCCOc4ccccc4)c2C3=O)cc1OC` was > 35 µM (inactive); that for `Cc1cc(C(=O)N2CCN(c3ccc(F)cc3)CC2)on1` was > 35 µM (inactive).
The value for `CS(=O)(=O)c1ncc(Cl)c(C(=O)Nc2ccc(OC(F)F)cc2)n1` was > 35 µM (inactive); that for `Cc1cc(C)cc(COn2ccnc2)c1` was > 35 µM (inactive); that for `CCNC(=O)CN(c1ccc(Br)c(C)c1)S(C)(=O)=O` was > 35 µM (inactive).
Take `CCc1cc(=O)oc2cc(C)cc(OCC(=O)NC3CCN(Cc4ccccc4)CC3)c12`: the EC50 is > 35 µM (inactive).
In the case of `O=C(CN1C(=O)COc2ccccc21)NCCCN1CCc2ccccc2C1`, the EC50 is > 35 µM (inactive).
With `COc1ccc(CNS(=O)(=O)c2ccccc2Br)cc1`, the EC50 was > 35 µM (inactive).
The value for `CC(=O)Oc1ccccc1C(=O)Oc1ccccc1C(=O)O` was > 35 µM (inactive); that for `CCCOc1ccc(N2C(=O)C3ON(c4ccccc4)C(CCC)C3C2=O)cc1` (stereo not given) was > 35 µM (inactive); that for `CCN(CC)CCCN=C(C)c1c(O)n(-c2ccccc2)c(=O)[nH]c1=O` was > 35 µM (inactive).
Consider `CO/N=C/C(C#N)=C/c1cc(C(=O)c2ccccc2)cn1C`, for which the EC50 was > 35 µM (inactive).
The value for `CSc1cccc(NS(=O)(=O)c2cn(C)cn2)c1` was > 35 µM (inactive).
Consider `CC1=C/C(=N\OS(=O)(=O)c2ccccc2)C(C)=CC1=O`, for which the EC50 was > 35 µM (inactive).
Take `COc1ccc(OC)c(C2C(C(C)=O)=C(O)C(=O)N2Cc2cccnc2)c1` (stereo not given): the EC50 was > 35 µM (inactive).
Take `NC(=O)c1ccc(NC(=O)CSc2nnc(C3CC3)n2C2CC2)cc1`: the EC50 is > 35 µM (inactive).
The value for `CN(Cc1cnc2nc(N)nc(N)c2n1)c1ccc(C(=O)N[C@@H](CCC(=O)O)C(=O)O)cc1` was > 35 µM (inactive); that for `CC1=NNC(=O)/C1=C\c1cn(-c2ccccc2)nc1-c1ccccc1` was 11.8 µM; that for `CCCN1CCN(CCCNC(=O)CCCn2nc(C)c3sc4ccccc4c3c2=O)CC1` was > 35 µM (inactive).
The value for `CC1=NOC(=O)/C1=C\c1ccc(-c2cccc(Cl)c2)o1` was > 35 µM (inactive).
Regarding `Cc1cccc2c3c([nH]c12)CCN(C)C3`, the EC50 was > 35 µM (inactive).
The value for `Cc1ccc(Cl)cc1NC(=O)CC1NC2CCCCC2NC1=O` (stereo not given) was > 35 µM (inactive).
The value for `S=C(Nc1ccccc1)N1N=C(c2cccs2)CC1c1cccs1` (stereo not given) was > 35 µM (inactive).
Turning to `CN(CC(=O)O)S(=O)(=O)c1ccc2oc3ccccc3c2c1`, the EC50 was > 35 µM (inactive).
